# Where “and” joins values, the source holds several entries; their conditions need not be identical. Identical values can stand only once. Entries after “also recorded” stand apart in the source; their conditions may differ. Like-named read-outs stand apart in the source and are kept apart here.
# Tests used:
# [1] = system: CCI4-induced liver fibrosis model; assay: Pharmacological activity test in carbon tetrachloride induced liver fibrosis model; format: in vivo, C57BL/6 mice
# Method: Male C57BL/6 mice were injected intraperitoneally with 5% CCI4(dissolved in corn oil) at 5 mL/kg twice a week to induce liver fibrosis model. Three weeks after modeling, mice were randomly divided into five groups: model control group (Model, n=12), positive compound FTY720 group (2 mg/kg, n=9), positive compound OCA group (30 mg/kg, n=10), low dose group (3 mg/kg), high dose group (10 mg/kg), FTY720 was administered by intraperitoneal injection and the rest of the groups were administered by oral gavage, once a day. After 5 weeks of administration, the mice were sacrificed by dislocation after blood was taken via the posterior ophthalmic plexus, liver and spleen were taken and weighed. Part of the liver was fixed in 4% paraformaldehyde, and part of the liver and serum were stored at −80° C. 10 mice from the same litter were injected intraperitoneally with the same dose of corn oil throughout the experiment as a systemic control.
# [2] = Preliminary evaluation of pharmacokinetics in Beagle dogs; format: in vivo; conditions: for MRT inf: read-out: MRT0-∞; for Vd: read-out: Vss; for concentration at 0.083 h / concentration at 0.25 h / concentration at 0.5 h / concentration at 1 h / concentration at 2 h / concentration at 3 h / concentration at 4 h / concentration at 6 h / concentration at 8 h: read-out: Plasma drug concentration in Beagle dogs
# [3] = Beagle dogs, intragastric 3 mg/kg, individual animals 4-6, listed as DC411151
# [4] = Beagle dogs, intravenous 0.5 mg/kg, individual animals 1-3, listed as DC411151, 0.5 mg/kg
# [5] = Beagle, dog, plasma, po, 3 mg/kg, Beagle dogs, intragastric 3 mg/kg, individual animals 4-6
# [6] = Beagle, dog, plasma, po, 3 mg/kg, Beagle dogs, intragastric 3 mg/kg, mean
# [7] = beagle, dog, plasma, iv, 0.5 mg/kg, Beagle dogs, intravenous 0.5 mg/kg, individual animals 1-3
# [8] = beagle, dog, plasma, iv, 0.5 mg/kg, Beagle dogs, intravenous 0.5 mg/kg, mean
# [9] = dog, in vivo, Beagle dogs, intravenous 0.5 mg/kg, mean
compound,measurement,setting,value
"CC(C)Oc1ccc(-c2nc(-c3ccc(CN4CC(C(=O)O)C4)c4ccccc34)no2)cc1C#N.Cl [Compound A1, 1-((4-(5-(3-cyano-4-isopropoxyphenyl)-1,2,4-oxadiazol-3-yl)naphthalen-1-yl)methyl) azetidine-3-carboxylic acid hydrochloric acid]",hydroxyproline content in the liver,"[1]; high dose (10 mg/kg), 10 mg/kg",significantly alleviated; also recorded: alleviating
same,"mRNA expression of liver fibrosis-related genes (Tgfb, Col1a1)","[1]; high dose (10 mg/kg), 10 mg/kg",significantly downregulated; also recorded: downregulates
same,liver and spleen organ weights,"[1]; oral gavage once a day, 5 weeks",without affecting
same,ALT levels in serum,"[1]; oral gavage once a day, 5 weeks, 3 and 10 mg/kg groups",significantly reduced
same,collagen deposition in the liver,[1]; pathological section analysis,significantly reduced
same,AUC0-t,[2]; [3],1170 ng·h/mL and 1550 ng·h/mL and 757 ng·h/mL
same,AUC0-∞,[2]; [3],1200 ng·h/mL and 1570 ng·h/mL and 765 ng·h/mL
same,Cmax,[2]; [3],318 ng/mL and 539 ng/mL and 242 ng/mL
same,MRT0-∞,[2]; [3],2.58 h and 2.44 h
same,Tmax,[2]; [3],1 h and 0.25 h and 2 h
same,t1/2,[2]; [3],1.32 h and 1.06 h
same,plasma clearance as share of dog liver blood flow (about 31 mL/min/kg),"[2]; Beagle dogs, intravenous 0.5 mg/kg",75.2%
same,AUC0-t,[2]; [4],317 ng·h/mL and 382 ng·h/mL
same,AUC0-∞,[2]; [4],319 ng·h/mL and 382 ng·h/mL
same,CL,[2]; [4],26.1 mL/min/kg and 21.8 mL/min/kg
same,MRT0-∞,[2]; [4],0.892 h and 0.952 h
same,Vss,[2]; [4],1.40 L/kg and 1.24 L/kg
same,t1/2,[2]; [4],1.05 h and 0.905 h
same,half-life,[2]; [5],1.3 h
same,MRT inf,[2]; [5],2.93 h
same,AUC(0-inf),[2]; [6],1180 ng·h/mL
same,half-life,[2]; [6],1.23 h
same,MRT inf,[2]; [6],2.65 h
same,Tmax,"[2]; Beagle, dog, plasma, po, 3 mg/kg, Beagle dogs, intragastric 3 mg/kg, mean, read-out: Tmax",1.08 h
same,AUC(0-inf),[2]; [7],379 ng·h/mL
same,clearance,[2]; [7],22 mL/min/kg
same,half-life,[2]; [7],0.997 h
same,AUC0-t,"[2]; beagle, dog, plasma, iv, 0.5 mg/kg, Beagle dogs, intravenous 0.5 mg/kg, individual animals 1-3, read-out: AUC0-t",375 ng·h/mL
same,MRT inf,[2]; [7],0.91 h
same,Vd,[2]; [7],1.2 L/kg
same,AUC(0-inf),[2]; [8],360 ng·h/mL
same,AUC0-t,"[2]; beagle, dog, plasma, iv, 0.5 mg/kg, Beagle dogs, intravenous 0.5 mg/kg, mean, read-out: AUC0-t",358 ng·h/mL
same,MRT inf,[2]; [8],0.918 h
same,concentration at 0.083 h,"[2]; beagle, dog, plasma, iv, 0.5 mg/kg, intravenous 0.5 mg/kg, 0.083 h, individual animals 1-3",604 ng/mL
same,concentration at 0.083 h,"[2]; beagle, dog, plasma, iv, 0.5 mg/kg, intravenous 0.5 mg/kg, 0.083 h, mean",565 ng/mL
same,concentration at 0.25 h,"[2]; beagle, dog, plasma, iv, 0.5 mg/kg, intravenous 0.5 mg/kg, 0.25 h, individual animals 1-3",237 ng/mL
same,concentration at 0.25 h,"[2]; beagle, dog, plasma, iv, 0.5 mg/kg, intravenous 0.5 mg/kg, 0.25 h, mean",265 ng/mL
same,concentration at 0.5 h,"[2]; beagle, dog, plasma, iv, 0.5 mg/kg, intravenous 0.5 mg/kg, 0.5 h, individual animals 1-3",190 ng/mL
same,concentration at 0.5 h,"[2]; beagle, dog, plasma, iv, 0.5 mg/kg, intravenous 0.5 mg/kg, 0.5 h, mean",168 ng/mL
same,concentration at 1 h,"[2]; beagle, dog, plasma, iv, 0.5 mg/kg, intravenous 0.5 mg/kg, 1 h, individual animals 1-3",98.8 ng/mL
same,concentration at 1 h,"[2]; beagle, dog, plasma, iv, 0.5 mg/kg, intravenous 0.5 mg/kg, 1 h, mean",90.9 ng/mL
same,concentration at 2 h,"[2]; beagle, dog, plasma, iv, 0.5 mg/kg, intravenous 0.5 mg/kg, 2 h, individual animals 1-3",27.5 ng/mL
same,concentration at 2 h,"[2]; beagle, dog, plasma, iv, 0.5 mg/kg, intravenous 0.5 mg/kg, 2 h, mean",30.2 ng/mL
same,concentration at 3 h,"[2]; beagle, dog, plasma, iv, 0.5 mg/kg, intravenous 0.5 mg/kg, 3 h, individual animals 1-3",20.4 ng/mL
same,concentration at 3 h,"[2]; beagle, dog, plasma, iv, 0.5 mg/kg, intravenous 0.5 mg/kg, 3 h, mean",17.7 ng/mL
same,concentration at 4 h,"[2]; beagle, dog, plasma, iv, 0.5 mg/kg, intravenous 0.5 mg/kg, 4 h, individual animals 1-3",9.68 ng/mL
same,concentration at 4 h,"[2]; beagle, dog, plasma, iv, 0.5 mg/kg, intravenous 0.5 mg/kg, 4 h, mean",9.39 ng/mL
same,concentration at 6 h,"[2]; beagle, dog, plasma, iv, 0.5 mg/kg, intravenous 0.5 mg/kg, 6 h, individual animals 1-3",2.51 ng/mL
same,concentration at 6 h,"[2]; beagle, dog, plasma, iv, 0.5 mg/kg, intravenous 0.5 mg/kg, 6 h, mean",2.21 ng/mL
same,concentration at 8 h,"[2]; beagle, dog, plasma, iv, 0.5 mg/kg, intravenous 0.5 mg/kg, 8 h, mean",0.773 ng/mL
same,concentration at 0.25 h,"[2]; beagle, dog, plasma, oral, 3 mg/kg, intragastric 3 mg/kg, 0.25 h, mean",215 ng/mL
same,concentration at 0.5 h,"[2]; beagle, dog, plasma, oral, 3 mg/kg, intragastric 3 mg/kg, 0.5 h, mean",262 ng/mL
same,concentration at 1 h,"[2]; beagle, dog, plasma, oral, 3 mg/kg, intragastric 3 mg/kg, 1 h, individual animals 4-6",333 ng/mL
same,concentration at 1 h,"[2]; beagle, dog, plasma, oral, 3 mg/kg, intragastric 3 mg/kg, 1 h, mean",281 ng/mL
same,concentration at 2 h,"[2]; beagle, dog, plasma, oral, 3 mg/kg, intragastric 3 mg/kg, 2 h, individual animals 4-6",365 ng/mL
same,concentration at 2 h,"[2]; beagle, dog, plasma, oral, 3 mg/kg, intragastric 3 mg/kg, 2 h, mean",291 ng/mL
same,concentration at 3 h,"[2]; beagle, dog, plasma, oral, 3 mg/kg, intragastric 3 mg/kg, 3 h, individual animals 4-6",212 ng/mL
same,concentration at 3 h,"[2]; beagle, dog, plasma, oral, 3 mg/kg, intragastric 3 mg/kg, 3 h, mean",208 ng/mL
same,concentration at 4 h,"[2]; beagle, dog, plasma, oral, 3 mg/kg, intragastric 3 mg/kg, 4 h, mean",111 ng/mL
same,concentration at 6 h,"[2]; beagle, dog, plasma, oral, 3 mg/kg, intragastric 3 mg/kg, 6 h, mean",59.4 ng/mL
same,concentration at 8 h,"[2]; beagle, dog, plasma, oral, 3 mg/kg, intragastric 3 mg/kg, 8 h, mean",10.8 ng/mL
same,Tmax,"[2]; beagle, dog, plasma, po, 3 mg/kg, Beagle dogs, 3 mg/kg by gavage, range over animals, read-out: peak time Tmax",0.25 to 2 h
same,AUC0-t,"[2]; dog, in vivo, po, Beagle dogs, intragastric 3 mg/kg, mean, read-out: AUC0-t",1160 ng·h/mL
same,Cmax,"[2]; dog, in vivo, po, Beagle dogs, intragastric 3 mg/kg, mean, read-out: Cmax",366 ng/mL
same,clearance,[2]; [9],23.3 mL/min/kg
same,half-life,[2]; [9],0.984 h
same,Vd,[2]; [9],1.28 L/kg
same,bioavailability,"[2]; dog, plasma, oral, Beagle dogs, 3 mg/kg by gavage vs 0.5 mg/kg intravenous, read-out: absolute bioavailability",54%
same,Plasma drug concentration in Beagle dogs,"[2]; intragastric 3 mg/kg, 0.25 h, individual animals 4-6, listed as DC411151",539 ng/mL and 93.3 ng/mL and 11.2 ng/mL
same,Plasma drug concentration in Beagle dogs,"[2]; intragastric 3 mg/kg, 0.5 h, individual animals 4-6, listed as DC411151",444 ng/mL and 153 ng/mL and 188 ng/mL
same,Plasma drug concentration in Beagle dogs,"[2]; intragastric 3 mg/kg, 1 h, individual animals 4-6, listed as DC411151",193 ng/mL and 318 ng/mL
same,Plasma drug concentration in Beagle dogs,"[2]; intragastric 3 mg/kg, 2 h, individual animals 4-6, listed as DC411151",242 ng/mL and 266 ng/mL
same,Plasma drug concentration in Beagle dogs,"[2]; intragastric 3 mg/kg, 3 h, individual animals 4-6, listed as DC411151",143 ng/mL and 269 ng/mL
same,Plasma drug concentration in Beagle dogs,"[2]; intragastric 3 mg/kg, 4 h, individual animals 4-6, listed as DC411151",151 ng/mL and 62.7 ng/mL and 118 ng/mL
same,Plasma drug concentration in Beagle dogs,"[2]; intragastric 3 mg/kg, 6 h, individual animals 4-6, listed as DC411151",90.3 ng/mL and 24.0 ng/mL and 64.0 ng/mL
same,Plasma drug concentration in Beagle dogs,"[2]; intragastric 3 mg/kg, 8 h, individual animals 4-6, listed as DC411151",12.0 ng/mL and 4.87 ng/mL and 15.6 ng/mL
same,Plasma drug concentration in Beagle dogs,"[2]; intragastric 3 mg/kg, 24 h, individual animals 4-6",BQL
same,Plasma drug concentration in Beagle dogs,"[2]; intravenous 0.5 mg/kg, 0.083 h, individual animals 1-3, listed as DC411151, 0.5 mg/kg",554 ng/mL and 537 ng/mL
same,Plasma drug concentration in Beagle dogs,"[2]; intravenous 0.5 mg/kg, 0.25 h, individual animals 1-3, listed as DC411151, 0.5 mg/kg",219 ng/mL and 340 ng/mL
same,Plasma drug concentration in Beagle dogs,"[2]; intravenous 0.5 mg/kg, 0.5 h, individual animals 1-3, listed as DC411151, 0.5 mg/kg",138 ng/mL and 176 ng/mL
same,Plasma drug concentration in Beagle dogs,"[2]; intravenous 0.5 mg/kg, 1 h, individual animals 1-3, listed as DC411151, 0.5 mg/kg",76.9 ng/mL and 97.1 ng/mL
same,Plasma drug concentration in Beagle dogs,"[2]; intravenous 0.5 mg/kg, 2 h, individual animals 1-3, listed as DC411151, 0.5 mg/kg",27.8 ng/mL and 35.4 ng/mL
same,Plasma drug concentration in Beagle dogs,"[2]; intravenous 0.5 mg/kg, 3 h, individual animals 1-3, listed as DC411151, 0.5 mg/kg",12.5 ng/mL and 20.3 ng/mL
same,Plasma drug concentration in Beagle dogs,"[2]; intravenous 0.5 mg/kg, 4 h, individual animals 1-3, listed as DC411151, 0.5 mg/kg",7.88 ng/mL and 10.6 ng/mL
same,Plasma drug concentration in Beagle dogs,"[2]; intravenous 0.5 mg/kg, 6 h, individual animals 1-3, listed as DC411151, 0.5 mg/kg",1.64 ng/mL and 2.47 ng/mL
same,Plasma drug concentration in Beagle dogs,"[2]; intravenous 0.5 mg/kg, 8 h, individual animals 1-3, listed as DC411151, 0.5 mg/kg",BQL and 1.05 ng/ml and 0.496 ng/ml

# Source: patent publication US20240208954A1, “OXADIAZOLE COMPOUND, PREPARATION METHOD THEREFOR, PHARMACEUTICAL COMPOSITION AND USE THEREOF” (SHANGHAI INSTITUTE OF MATERIA MEDICA, CHINESE ACADEMY OF …, priority 2020, published 2024)
